Experimental data from patent US9302998B2, “Aryl triazole compounds with antitumoural activity” (SIGMA-TAU RESEARCH SWITZERLAND S.A., priority 2010, dated 2016).

How the values were obtained:
[1] = tested on: NB4 promyelocytic leukemia; assay: Sulphorodamine B test at single concentration, NB4; assay type: cell-based; details: 500 nM, 72 h, suspension cells
Description: (§1) The antiproliferative activity of novel Hsp90 inhibitors was also evaluated on various cancerous cell lines by means of the sulphorodamine B test (i.e., NCI-H460 non-small cell lung carcinoma, A431 epidermoid, A2780 ovarian, MDA-MB436 triple-negative breast, U87MG glioblastoma, A498 renal, HCT116 colon, MeWo melanoma, MiaPaCa2 pancreas, HeLa cervix uteri, NB4 promyelocytic leukemia). NCI-H460, A431, MDA-MB436, A2780, A498, HeLa, NB4 tumour cells were grown in RPMI 1640 containing 10% fetal bovine serum (i.e., FBS from GIBCO), L-glutamine, and 50 μg/ml gentamycin sulfate.
(§2) All cell lines were maintained in a 37° C. incubator with saturated humidity and an atmosphere containing 95% air and 5% CO2, and were sub-cultured every 2-3 days. Tumour cells were seeded in 96-well tissue culture plates at approximately 10% confluence and were allowed to attach and recover for 24 h.
(§3) Varying concentrations of the drugs were then added to each well to calculate their IC50 value (the concentration which inhibits the 50% of cell survival). The plates were incubated at 37° C. for 72 h. At the end of the treatment, the plates were washed by remotion of the supernatant and addition of PBS 3 times. 200 μl PBS and 50 μl of cold 80% trichloroacetic acid (TCA) were added. The plates were incubated on ice for at least 1 h. TCA was removed, the plates were washed 3 times by immersion in distilled-water and dried on paper and at 40° C. for […]. Then 200 μl of 0.4% sulphorodamine B in 1% acetic acid were added. The plates were incubated at room temperature for 30 min. Sulphorodamine B was removed, the plates were washed by immersion in 1% acetic acid for 3 times, then they were dried on paper and at 40° C. for 5 min. Then, 200 μl Tris 10 mM were added, the plates were kept under stirring for 20 min. The cell survival was determined as optical density by a Multiskan […] at 540 nm. The amount of cells killed was calculated as the percentage decrease in sulphorodamine B binding compared with control cultures.
(§4) The other cell lines were screened against one single concentration of the various inhibitors (i.e., 500 nM), all experiments being made in octuplicate, following the protocol described at example 35. Since NB4 cell line was grown in suspension, a further step of centrifugation (i.e., 1600 g for 10 min) was added after the 72 hour incubation period.

A2780 ovarian = assay: Sulphorodamine B test at single concentration, A2780; assay type: cell-based; details: Homo sapiens, 500 nM, 72 h
Description: as §1, §2, §3, §4

U87MG glioblastoma = assay: Sulphorodamine B test at single concentration, U87MG; assay type: cell-based; details: Homo sapiens, U-87 MG; 500 nM, 72 h
Description: as §1
(§5) MeWo and U87-MG cells were cultured in Eagle's Minimum Essential Medium (i.e., EMEM) containing 10% FBS, L-glutamine, 1 mM sodium pyruvate, 0.1 mM non-essential amino acids, 1.5 g/l sodium bicarbonate, and 50 μg/ml gentamycin sulphate.
as §2, §3, §4

HCT116 colon = assay: Sulphorodamine B test at single concentration, HCT116; assay type: cell-based; details: Homo sapiens, HCT-116; 500 nM, 72 h
Description: as §1
HCT116 cells were cultured in McCoy's medium containing 10% FBS, L-glutamine, and 50 μg/ml gentamycin sulfate.
as §2, §3, §4

Hsp90 = biological target: T1, Hsp90 (Homo sapiens, UniProt P07900); assay: Fluorescence Polarization (FP) binding, GM-BODIPY displacement from Hsp90; details: GM-BODIPY tracer, 4° C. for 4 hours
T1 construct: purchased Stressgen SPP-776
Description: GM-BODIPY (PerkinElmer, CUSN60342000MG) was previously dissolved in DMSO to obtain 10 mM stock solutions and kept at −20° C. until use.
Hsp90 (Stressgen, SPP-776), was previously dissolved in assay buffer (HFB) to form 2.2 μM stock solutions and kept at −80° C. until use.
The compounds were previously dissolved in DMSO to obtain stock solutions and kept at −20° C. The day of experiment, the compounds were prepared by serial dilutions in assay buffer (HFB) containing 20 mM HEPES (K) pH 7.3, 50 mM KCl, 5 mM MgCl2, 20 mM Na2MoO4 and 0.01% NP40. Before each use, 0.1 mg/ml Bovine Gamma globulin and 2 mM DTT were freshly added.
Fluorescence Polarization (FP) was performed in Opti-Plate™-96F well plates (Perkin Elmer, Zaventem, Belgium) using a plate reader (Wallac Envision 2101 multilabel reader, Perkin Elmer, Zaventem, Belgium). To evaluate the binding affinity of the molecules, 50 μl of the GM-BODIPY solution (100 nM) were added to 125 nM of Hsp90 in the presence of 5 μl of the test compounds at increasing concentrations. The plate was mixed on a shaker at 4° C. for 4 hours, and the FP values in mP (millipolarization units) were recorded. The IC50 values were calculated as the inhibitor concentration where 50% of the tracer is displaced; each data point is the result of the average of triplicate wells, and was determined from a plot using nonlinear least-squares analysis. Curve fitting was performed using
Prism GraphPad software program (GraphPad software, Inc., San Diego, Calif.).

A431 epidermoid = assay: Sulphorodamine B test at single concentration, A431; assay type: cell-based; details: Homo sapiens, A-431; 500 nM, 72 h
Description: as §1, §2, §3, §4

MiaPaCa2 pancreas = assay: Sulphorodamine B test at single concentration, MiaPaCa2; assay type: cell-based; details: Homo sapiens, MIA PaCa-2; 500 nM, 72 h
Description: as §1
MiaPaCa2 cells were cultured in DMEM medium containing 10% FBS, L-glutamine, and 50 μg/ml gentamycin sulfate.
as §2, §3, §4

A498 renal = assay: Sulphorodamine B test at single concentration, A498; assay type: cell-based; details: Homo sapiens, 500 nM, 72 h
Description: as §1, §2, §3, §4

[2] = tested on: NCI-H460 non-small cell lung carcinoma; assay: Cytotoxicity assay, sulphorodamine B test, NCI-H460; assay type: cell-based; details: Homo sapiens, NCI-H460; 72 h, sulphorodamine B
Description: as §1, §2, §3

MeWo melanoma = assay: Sulphorodamine B test at single concentration, MeWo; assay type: cell-based; details: Homo sapiens, 500 nM, 72 h
Description: as §1, §5, §2, §3, §4

HeLa cervix uteri = assay: Sulphorodamine B test at single concentration, HeLa; assay type: cell-based; details: Homo sapiens, 500 nM, 72 h
Description: as §1, §2, §3, §4

[3] = tested on: MDA-MB436 triple-negative breast; assay: Sulphorodamine B test at single concentration, MDA-MB436; assay type: cell-based; details: Homo sapiens, MDA-MB-436; 500 nM, 72 h
Description: as §1, §2, §3, §4

Row | IC50 (Hsp90) [nM] | SMILES | inhibition at 0.5 µM [1] [%] | inhibition at 0.5 µM (A2780 ovarian) [%] | inhibition at 0.5 µM (U87MG glioblastoma) [%] | inhibition at 0.5 µM (HCT116 colon) [%] | inhibition at 0.5 µM (A431 epidermoid) [%] | inhibition at 0.5 µM (MiaPaCa2 pancreas) [%] | inhibition at 0.5 µM (A498 renal) [%] | IC50 [2] [nM] | inhibition at 0.5 µM (MeWo melanoma) [%] | inhibition at 0.5 µM (HeLa cervix uteri) [%] | inhibition at 0.5 µM [3] [%]
1 | < 50 | CCNC(=O)c1nnn(-c2cc(C(C)C)c(O)cc2O)c1-c1ccc(CN2CCCCC2CCO)cc1 (stereo not drawn) [Example 8, 1-(2,4-dihydroxy-5-isopropyl-phenyl)-5-{4-[2-(2-hydroxy-ethyl)-piperidin-1-ylmethyl]-phenyl}-1H-[1,2,3]triazole-4-carboxylic acid ethylamide] | ≥ 50 | ≥ 50 | ≥ 50 | ≥ 50 | ≥ 50 | ≥ 50 | 30 to 50 | 100 to 500 | ≥ 50 | ≥ 50 | ≥ 50
2 | < 50 | CCNC(=O)c1nnn(-c2cc(C(C)C)c(O)cc2O)c1-c1ccc(CN2CCCCC2)cc1 [Example 9, 1-(2,4-dihydroxy-5-isopropyl-phenyl)-5-(4-piperidin-1-ylmethyl-phenyl)-1H-[1,2,3]triazole-4-carboxylic acid ethylamide] | ≥ 50 | ≥ 50 | ≥ 50 | ≥ 50 | ≥ 50 | ≥ 50 | ≥ 50 | < 50 | ≥ 50 | ≥ 50 | ≥ 50
3 | < 50 | CCNC(=O)c1nnn(-c2cc(C(C)C)c(O)cc2O)c1-c1ccc(CN2CCN(C)CC2)cc1 [Example 11, 1-(2,4-dihydroxy-5-isopropyl-phenyl)-5-[4-(4-methyl-piperazin-1-ylmethyl)-phenyl]-1H-[1,2,3]triazole-4-carboxylic acid ethylamide] | ≥ 50 | ≥ 50 | ≥ 50 | ≥ 50 | ≥ 50 | ≥ 50 | ≥ 50 | < 50 | ≥ 50 | ≥ 50 | ≥ 50
4 | < 50 | CCNC(=O)c1nnn(-c2cc(C(C)C)c(O)cc2O)c1-c1ccc(CNCC2CCCCC2)cc1 [Example 15, 5-{4-[(cyclohexylmethyl-amino)-methyl]-phenyl}-1-(2,4-dihydroxy-5-isopropyl-phenyl)-1H-[1,2,3]triazole-4-carboxylic acid ethylamide] | ≥ 50 | ≥ 50 | ≥ 50 | ≥ 50 | ≥ 50 | ≥ 50 | ≥ 50 | < 50 | ≥ 50 | ≥ 50 | ≥ 50
